As usually defined, the MIC is the lowest concentration that inhibits growth of the organism.

5 molecules from US5512588A, “Furylthiazoles and their use as H2 - receptor antagonists and antimicrobials” (Fujisawa Pharmaceutical Co., Ltd., priority 1991, dated 1996) can be followed below.

The subject of test [1] is HCl-aspirin ulcer. Kind of test: Test D (Inhibition of HCl-aspirin ulcer). In kind it is in vivo, male Sprague-Dawley rats. The conditions noted are these: length of ulcers vs control; test compound 32 mg/kg orally 30 minutes before aspirin 200 mg/kg in 0.2N HCl; rats. As for the experimental part: Test D (Inhibition of HCl-aspirin ulcer):
Seven male Sprague-Dawley rats, aged 6 weeks and weighing about 200 g were used per group for the study on HCl-aspirin ulcer after the fast for 24 hours. Each of the test compounds (32 mg/kg) suspended in 0.1% methylcellulose solution was administered orally 30 minutes before aspirin administration. Aspirin, suspended in 0.1% methylcellulose solution containing 0.2N HCl, was administered orally at a dose of 200 mg/kg/10 ml. One hour later, the animals were sacrificed and their stomachs were removed. The stomach was then fixed with 2% formalin. The length of ulcers was measured for each animal, and percentage of inhibition was calculated by comparing the mean length of ulcers (mm) in the test animals with that in the control animals.

The subject of test [2] is H2 -receptor. As to the kind of experiment: Test A (H2 -receptor antagonism in isolated guinea-pig atrium). As to conditions: inhibition of histamine (1×10^-6 g/ml)-induced increase in beating rate, test compound 1×10^-6 g/ml, 30 minutes, 30°C. As for the experimental part:
Test A (H2 -receptor antagonism in isolated guinea-pig atrium):
The atrial strip isolated from guinea-pig was suspended under an initial tension 0.3 to 0.6 g in an organ bath containing Tyrode solution at 30°C., aerated 95% O2 -5% CO2 gas. The beating rate and amplitude of contraction of the atrium were recorded by means of a transducer and a polygraph. Histamine (1×10^-6 g/ml) was added to the bathing fluid and the increase in beating rate after dosing was measured. Addition of test compounds (1×10^-6 g/ml) was made 30 minutes after washing out histamine. Inhibitory effect of test compound was calculated by comparing histamine-induced increases in beating rate before and 30 minutes after dosing with the test compounds.

The test system of test [3] is Campylobacter pyloridis 8008. As to the kind of experiment: Test C (Anti-microbial activity), agar dilution method. In kind it is cell-based. As to conditions: Helicobacter pylori, 72 h, Brucella agar plus 5% lysed horse blood, 37° C. for 3 days, 10% CO2, 10^4 cfu/ml. As for the experimental part:
Test C (Anti-microbial activity):
In vitro antimicrobial activity was determined by the agar dilution method. Test strain was precultured in Brucella broth Agar containing 5% horse serum at 37° C. for 3 days, and 10^4 cfu/ml were inoculated with a multipoint replicater onto Brucella agar plus 5% lysed horse blood plate containing serial 2-fold dilutions of each drug at 37° C. for 3 days. Incubation was carried out in an atmosphere of 10% CO2. MIC was read after incubation as the lowest drug concentration that inhibited macroscopic colonial growth.

Test [4] relates to histamine-stimulated gastric secretion. Kind of test: Test B (Gastric secretion from lumen perfused stomach in anesthetized rats). In kind it is in vivo, Male Sprague-Dawley rats. As to conditions: maximal inhibition of acid output, histamine 3 mg/kg/hr i.v., test compound 1 mg/kg intravenously. The procedure: Test B (Gastric secretion from lumen perfused stomach in anesthetized rats):
Male Sprague-Dawley rats weighing about 250 g were used. Rats were deprived of food but allowed free access to water for 24 hours. The animals were anesthetized with 1.25 g/kg urethane intraperitoneally. The abdomen was opened and the gastric lumen was perfured with saline throughout the experiment. The perfusate was titrated by an autotitrator with 25 mM sodium hydroxide as a titrant. Gastric secretion was stimulated by intravenous infusion with histamine (3 mg/kg/hr). After reaching plateau, test compound (1 mg/kg) was given intravenously. Drug effect was expressed as maximal inhibition by acid output.

Each structure is given as a SMILES string.

With `CCCCNC(N)=Nc1nc(-c2ccc(CNC(C)=O)o2)cs1` [Test Compound (a), 4-(5-Acetylaminomethylfuran-2-yl)-2-(amino)(n-butylamino)methyleneamino!thiazole], in test [1], the “Inhibition (%)” value is listed as 86.9%.

For `CCCCCCNC(N)=Nc1nc(-c2ccc(CNC(C)=O)o2)cs1` [Test Compound (b), 4-(5-Acetylaminomethylfuran-2-yl)-2-(amino)(n-hexylamino)methyleneamino!thiazole], the “H2 Antagonism (%)” value in test [2] was 78.5%. Also, the MIC in test [3] stood at 0.1 µg/mL. Consider `COCCNC(N)=Nc1nc(-c2ccc(CNC(C)=O)o2)cs1` [Test Compound (c), 4-(5-Acetylaminomethylfuran-2-yl)-2-(amino)-(2-methoxyethylamino)methyleneamino!thiazole], for which, in test [4], the “Inhibition (%)” value is given as 69%. Consider `CC(=O)NCc1ccc(-c2csc(N=C(N)NCCc3ccccn3)n2)o1` [Test Compound (d), 4-(5-Acetylaminomethylfuran-2-yl)-2-(amino)-2-(2-pyridyl)ethylamino!methyleneamino!thiazole], for which, in test [3], the MIC was found to be 0.78 µg/mL. The same measure, in the same setting: to `C=CCNC(N)=Nc1nc(-c2ccc(CNC(C)=O)o2)cs1` [Test Compound (e)] belongs 0.78 µg/mL.
